Data published in US12285407B2, “Bis-indolylmethane derivatives and uses thereof” (The University of The West Indies, priority 2018, dated 2025).

Tests used:
[1] = test system: Streptococcus pneumoniae; assay: Adjuvant broth microdilution (antibiotic MIC with SP-BIM at 50 μg/mL); assay type: cell-based; details: Streptococcus pneumoniae, Streptococcus pneumonia, SP-BIM at 50 μg mL^−1
[2] = test system: Staphylococcus aureus; assay: Checkerboard synergy (FICI) of antibiotics with SP-BIM; assay type: cell-based; details: Staphylococcus aureus, SP-BIM 13 alone, one value per antibiotic's checkerboard
[3] = test system: Streptococcus pneumoniae; assay: as above; assay type: cell-based; details: Streptococcus pneumoniae, SP-BIM 13 alone, one value per antibiotic's checkerboard
[4] = test system: Bacillus cereus; assay: as above; assay type: cell-based; details: SP-BIM 13 alone, one value per antibiotic's checkerboard
[5] = test system: Enterococcus faecium; assay: as above; assay type: cell-based; details: Enterococcus faecium; SP-BIM 13 alone, one value per antibiotic's checkerboard; read-out: MIC SP-BIM 13 only
[6] = test system: Klebsiella pneumoniae; assay: as above; assay type: cell-based; details: SP-BIM 13 alone, one value per antibiotic's checkerboard, read-out: MIC SP-BIM 13 only
[7] = test system: clinical antibiotic resistant isolates of MRSA; assay: Checkerboard resistance breaking by SP-BIM 13; assay type: cell-based, Staphylococcus aureus; details: clinical MRSA strains; in most cases
[8] = test system: MRSA HS 10132; assay: Systemic lethal MRSA infection in mice (survival); assay type: in vivo
[9] = test system: Escherichia coli; assay: Checkerboard synergy (FICI) of antibiotics with SP-BIM; parameters: MIC SP-BIM 13 only / MIC in combination: Antibiotic: unit not given beside the values; details: SP-BIM 13 alone
[10] = test system: Candida albicans; assay: as above; parameters: MIC SP-BIM 13 only / MIC in combination: Antibiotic / MIC antibiotic only: unit not given beside the values; details: SP-BIM 13 alone

In the case of `Oc1cc(C(c2c[nH]c3ccccc23)c2c[nH]c3ccccc23)cc(O)c1O` [SP-BIM 13, 5-(di(1H-indol-3-yl)methyl)benzene-1,2,3-triol], the MIC ([1]; read-out: MIC of Kanamvcin with SP-BIM) is reported as 4 mg/L, the MIC ([1]; read-out: MIC of Vancomvcin with SP-BIM) is reported as less than 0.2 mg/L and the “MIC SP-BIM 13 only” value [2] is reported as 125 mg/L. The MIC ([2]; read-out: MIC SP-BIM 13 only) was 63 mg/L, the “MIC SP-BIM 13 only” value [3] was 125 mg/L and the MIC ([3]; read-out: MIC SP-BIM 13 only) was greater than 250 mg/L. The “MIC SP-BIM 13 only” value [4] was greater than 250 mg/L, the MIC ([4]; read-out: MIC SP-BIM 13 only) was 125 mg/L and the MIC [5] was 125 mg/L. For the same compound, the MIC [6] was greater than 250 mg/L, the “reduction of ampicillin MICs by SP-BIM 13” value [7] was 100 fold and the mortality ([8]; SP-BIM 13 only 5 mg kg^−1) was 40%. The mortality ([8]; SP-BIM 13 only 10 mg kg^−1) was 60%, the mortality ([8]; SP-BIM 13 only 25 mg kg^−1) was 0% and the mortality ([8]; ampicillin in combination with three levels SP-BIM 13, 5 days) was 0%. For the same compound, the survival rate ([8]; vancomycin in combination with the three levels of SP-BIM 13) was “similarly high survival rate”, the “MIC SP-BIM 13 only” value [9] was greater than 250 and the “MIC SP-BIM 13 only” value [10] was greater than 250.
